The values below come from paper PMC3988166 (PLoS ONE, 2014).

One data set concerns the target T1, Recombinant human ASGPR (Homo sapiens, UniProt P07306).
T1 construct: purchased Sino Biological Inc. (Beijing, China)
T1 sequence (P07306 62-291 limits assumed): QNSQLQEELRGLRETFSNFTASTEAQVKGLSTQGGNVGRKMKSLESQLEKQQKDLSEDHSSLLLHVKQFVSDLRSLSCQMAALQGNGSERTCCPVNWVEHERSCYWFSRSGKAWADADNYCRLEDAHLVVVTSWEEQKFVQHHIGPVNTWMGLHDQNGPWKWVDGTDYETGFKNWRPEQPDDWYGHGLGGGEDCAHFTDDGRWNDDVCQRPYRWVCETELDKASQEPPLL
The data set is described as follows: biochemical. The format is binding. As to the method:
SPR experiments were performed on a Biacore T100 (GE Healthcare, Little Chalfont, UK) at 25°C. Recombinant human ASGPR (the subunit of ASGPR that contains the carbohydrate binding site) used was from Sino Biological Inc. (Beijing, China). The receptor was immobilized onto a series S sensor chip CM5 (GE Healthcare, Little Chalfont, UK) using the N-hydroxysuccinimide (NHS) capture kit (GE Healthcare, Little Chalfont, UK).
Recombinant human ASGPR was immobilized onto a series S sensor chip CM5 using the NHS capture kit, where ASGPR was covalently linked to the surface of the chip via free amine groups. Compounds were tested at 10–1000 µM concentrations using multi-cycle kinetics with at least three experiments performed for each interaction. Single cycle kinetics was applied to optimize concentrations prior to completion of multi-cycle kinetics as described by Dumont et al.. […] The running buffer for all SPR experiments was 20 mM HEPES, pH 7.4, 150 mM NaCl, 5 mM CaCl2, and 0.005% TWEEN 20.

A short description of data set [1]: Caco-2 cell permeability assay in the presence of phlorizin (inhibitor for SGLT1). The class given is in vitro ADME, human. The conditions noted are these: Caco-2 cell monolayer, 200 µM compound + 100 µM phlorizin, n = 3; read-out: P app, Phlorizin. How it is done:
(§1) Permeability experiments (as described above) were conducted to investigate whether the compounds used the sugar transporters SGLT1 or GLUT2 for their transport across cell membranes. Samples containing 200 µM test compound and 100 µM phlorizin (inhibitor for SGLT1) or 100 µM phloretin (inhibitor for GLUT2) in HBSS-HEPES buffer were added to the apical chamber. […] P app values for each compound were then calculated as above.

The nature of data set [2]: Caco-2 cell permeability assay in the presence of phloretin (inhibitor for GLUT2). The class given is in vitro ADME, human. The conditions noted are these: Caco-2 cell monolayer, 200 µM compound + 100 µM phloretin, n = 3; read-out: P app, Phloretin. How it is done: as §1
For orientation: Caco-2 monolayers are a common model of the intestinal barrier.

The nature of data set [3]: Caco-2 cell permeability assay. As to conditions: Caco-2; for Papp A→B at 150 min, 200 µM: human. As to the method:
(§2) Human colorectal adenocarcinoma cells (Caco-2 cells) were obtained from the American Type Culture Collection, Rockville, USA. A Branson Sonifier 250 (Branson Ultrasonics, Danbury, USA) was used to lyse the cells for stability experiments. Protein content was measured using the BioRad protein assay kit (BioRad, Hercules, USA). TPP 96-well plates for stability assays were purchased from Sigma Aldrich (Castle Hill, Australia). For permeability studies Caco-2 cell monolayers were grown in 24 well plates with Transwell polycarbonate cell culture inserts (pore size 0.4 µm, diameter 6.5 mm) from Corning Incorporated (New York, USA). A Millicell-ERS epithelial Transep volt-ohmmeter system (EMD Millipore Corporation, Billerica, USA) was used to measure the transepithelial electrical resistance (TEER) values of the cells. Scintillation counting was carried out using Liquid Scintillation Systems from Beckman Coulter (Brea, USA).
(§3) A cell suspension of Caco-2 cells in the cell culture medium was adjusted to a cell density of 1×10^6 cells/mL before being aliquoted (100 µL) into Transwell polycarbonate cell culture inserts in a 24-well plate, while 600 µL of media was added to the basolateral chamber. The culture medium was changed every other day for 21–28 days. TEER values were measured before and after the assay, to determine the integrity of tight junctions of the cell monolayers. […] Cell monolayers were washed with pre-warmed HBSS–HEPES and incubated for 30 min at 37°C. Test compounds and the control propanolol, were prepared in HBSS–HEPES buffer to a final concentration of 200 µM. After incubation, buffer in the apical chamber was removed and replaced with 100 µL aliquots of each of the test compounds. […] The concentration of the peptide in the collected samples was determined using LC-MS analysis as described for the stability assay above. Radioactivity of the [^14C]-D-mannitol samples was quantified by liquid scintillation counting (Liquid Scintillation Systems).
(§4) The apparent permeability (Papp, cm/s) of each compound was calculated using the following equation: [drawing 1]
(§5) Where dC/dt is the steady-state rate of change in the test item concentration (M/s) or radiochemical concentration (dpm mL/s) in the receiver chamber, Vr is the volume of the receiver chamber (mL), A is the surface area of the cell monolayers and C0 is the initial concentration in the donor chamber (M or dpm/mL).
(§6) The average Papp values (±S.D.) from three replicates is presented.

The nature of the next data set: Plasma stability assay. The format is in vitro ADME. The conditions noted are these: human, after incubation at 37°C for 120 min, read-out: % remained in human plasma. How it is done: Blood sample collection from a healthy and consenting human adult for this study was approved by and conducted according to the guidelines set by The University of Queensland Medical Research Ethics Committee (approval number: 2009000661). Written consent was obtained prior to the collection of blood samples. Plasma was isolated from fresh-heparin treated blood by centrifugation at 660×g for 15 min. […] Compounds (300 µL) were mixed with 300 µL of the plasma, pre-warmed at 37°C and incubated at 37°C. Samples (50 µL) were collected at predetermined time points (0, 5, 10, 20, 30, 40, 60, 90 and 120 min), and added into 75 µL ACN to precipitate the plasma proteins. Samples were then centrifuged at 7300×g for 10 min.

For another data set, the system named is Caco-2 cell monolayers. The data set is described as follows: Caco-2 cell permeability assay. As to the method:
as §2, §3, §4, §5, §6

A further data set addresses Lac-Enk (Homo sapiens). The data set can be described thus: SPR. In general terms: Surface plasmon resonance follows binding to a sensor surface in real time, without labels.
The target in data set [4] is Gal-Lac-Enk (Homo sapiens). The data set can be described thus: SPR.
The target in data set [5] is Leu-enkephalin (Homo sapiens). The data set can be described thus: SPR.
A further data set addresses Gal-Enk (Homo sapiens). The data set is described as follows: SPR.

Read-outs that look alike come from different tables or passages of the source.

Regarding `CC(C)C[C@H](NC(=O)[C@H](Cc1ccccc1)NC(=O)CNC(=O)CNC(=O)[C@H](Cc1ccc(O)cc1)NC(=O)CCC(=O)N[C@@H]1O[C@H](CO)[C@H](O)[C@H](O)[C@H]1O)C(N)=O` [Gal-Enk, N^1-Leu-enkephalin-N^4-(β-D-galactopyranosyl)succinamide], on Recombinant human ASGPR, the koff (usually the rate constant with which the complex falls apart) is 0.072 ± 0.025 s⁻¹ and the kon (in general, the second-order rate constant of association) was 328 ± 84.8 M⁻¹ s⁻¹. Further, the Kd (usually the free concentration of one partner at which half of the binding sites on the other are occupied at equilibrium, for simple one-to-one binding) on Recombinant human ASGPR (KD) stood at 219 ± 164 µM. For the same molecule, the Papp A→B in [1] turned out to be 1.18 ± 0.276 ×10⁻⁶ cm/s. In addition, the Papp A→B in [2] turned out to be 1.58 ± 0.723 ×10⁻⁶ cm/s. This molecule also returned a Papp A→B at 150 min, 200 µM in data set [3] of 0.798 ± 0.203 ×10⁻⁶ cm/s. Also, the remaining at 2 h, 0.5 mg/mL in “Plasma stability assay” is approximately 60%.
As for `OC[C@@H](O)[C@@H](O)[C@H](O)[C@H](O)CO` [^14C mannitol, [^14C]-D-mannitol, reference compound], the “apparent permeability (Papp)” value in the data set with Caco-2 cell monolayers (Caco-2 monolayers, apical to basolateral, compound only, values in text) is 4.4×10^−9 (±3.86) cm/s.
On to `OC[C@H]1O[C@@H](O[C@H]2[C@H](O)[C@@H](O)[C@H](O)O[C@@H]2CO)[C@H](O)[C@@H](O)[C@H]1O` [D-Lactose, reference compound], for which the Kd at Recombinant human ASGPR (SPR, immobilized ASGPR, 25°C, read-out: KD) came out at 19.2 ± 3.28 µM.
As for `CC(C)C[C@H](NC(=O)[C@H](Cc1ccccc1)NC(=O)CNC(=O)CNC(=O)[C@H](Cc1ccc(O)cc1)NC(=O)CCC(=O)N[C@@H]1O[C@H](CO)[C@@H](O[C@@H]2O[C@H](CO)[C@H](O[C@H]3O[C@H](CO)[C@H](O)[C@H](O)[C@H]3O)[C@H](O)[C@H]2O)[C@H](O)[C@H]1O)C(N)=O` [Gal-Lac-Enk, N^1-Leu-enkephalin-N^4-(α-D-galactopyranosyl-(1→4)-β-D-galactopyranosyl-(1→4)-β-D-glucopyranosyl)succinamide], at Recombinant human ASGPR, the “increase in binding affinity compared to the peptide alone” value is “two-fold”, the koff came out at 0.0041 ± 0.003 s⁻¹ and the on-rate constant (kon) amounted to 45 ± 28.9 M⁻¹ s⁻¹. Further, at Recombinant human ASGPR (KD), the dissociation constant Kd turned out to be 91.1 ± 22.1 µM. In addition, the Papp A→B in data set [1] was 0.561 ± 0.137 ×10⁻⁶ cm/s. The Papp A→B in data set [2] stood at 0.712 ± 0.137 ×10⁻⁶ cm/s. Moreover, the Papp A→B at 150 min, 200 µM in data set [3] stood at 0.44 ± 0.163 ×10⁻⁶ cm/s. Moreover, the remaining at 2 h in the data set “Plasma stability assay” (plasma) is approximately 100%.
With `CC(C)NCC(O)COc1cccc2ccccc12` (stereo not drawn) [propanolol, reference compound], the Papp A→B at 150 min, 200 µM in data set [3] came out at 134 ×10⁻⁶ cm/s.
In the case of `CC(C)C[C@H](NC(=O)[C@H](Cc1ccccc1)NC(=O)CNC(=O)CNC(=O)[C@H](Cc1ccc(O)cc1)NC(=O)CCC(=O)N[C@@H]1O[C@H](CO)[C@@H](O[C@@H]2O[C@H](CO)[C@H](O)[C@H](O)[C@H]2O)[C@H](O)[C@H]1O)C(N)=O` [Lac-Enk, N^1-Leu-enkephalin-N^4-(β-D-galactopyranosyl-(1→4)-β-D-glucopyranosyl)succinamide], the koff on Recombinant human ASGPR worked out at 0.0086 ± 0.002 s⁻¹. The kon on Recombinant human ASGPR amounted to 40.7 ± 6.3 M⁻¹ s⁻¹. Moreover, the equilibrium dissociation constant (Kd) on Recombinant human ASGPR (KD) was found to be 211 ± 70.9 µM. The Papp A→B in [1] came out at 0.711 ± 0.145 ×10⁻⁶ cm/s; in data set [2], 0.921 ± 0.084 ×10⁻⁶ cm/s; in [3], 1.72 ×10⁻⁶ cm/s. Besides, the “P app, Control (compound only)” value in the data set with Caco-2 cell monolayers (Caco-2 cell monolayer, 200 µM, n = 3) was 17.20±12.40 ×10^−7 cm/s. In addition, the remaining at 2 h, 0.5 mg/mL in the data set “Plasma stability assay” was approximately 70%.

B1: Asialoglycoprotein receptor (ASGPR, carbohydrate-binding subunit), P07306 (protein)
chain: MTKEYQDLQHLDNEESDHHQLRKGPPPPQPLLQRLCSGPRLLLLSLGLSLLLLVVVCVIGSQNSQLQEELRGLRETFSNFTASTEAQVKGLSTQGGNVGRKMKSLESQLEKQQKDLSEDHSSLLLHVKQFVSDLRSLSCQMAALQGNGSERTCCPVNWVEHERSCYWFSRSGKAWADADNYCRLEDAHLVVVTSWEEQKFVQHHIGPVNTWMGLHDQNGPWKWVDGTDYETGFKNWRPEQPDDWYGHGLGGGEDCAHFTDDGRWNDDVCQRPYRWVCETELDKASQEPPLL
Regarding B1, the Kd is 211 µM with Lac-Enk (Homo sapiens), 91.1 µM in data set [4], 277 µM in [5] and 219 µM in the data set with Gal-Enk (Homo sapiens).
